Results taken from the supplement of paper PMC10307832.

How the values were obtained:
Assay in all cases: relative viability (nuclei count vs DMSO), 5 days (fraction); higher = more cells survive
[1] = compound: CCC1=CN=CN=C1N2CCN(CC2)CC3=NC4=C(N3)C=C(C=C4)C(F)(F)F + Nc1nc2[nH]cc(CCc3ccc(C(=O)N[C@@H](CCC(=O)O)C(=O)O)cc3)c2c(=O)[nH]1 [Pemetrexed] (partner 0.2 µM)
Procedure, shortened: (§1)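 Dosing by pin tool came one day after lung cancer cell lines were seeded in 1536-well plates, using either one drug or a fixed anchor-drug dose plus five library-drug doses (not always all listed) in √10 steps. After 5 days, nuclei were counted on 4× images. Relative viability is treated-well nuclei count divided by vehicle-well nuclei count, and values are medians of duplicate plates.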

[2] = compound: N=C1NC(=O)/C(=C/c2ccc(O)cc2)S1 [Mirin] + COc1cccc2cc(-c3nc([C@H]4CC[C@H](C(=O)O)CC4)n4ncnc(N)c34)[nH]c12 [OSI-027] (partner 0.5 µM)
Procedure, shortened: as §1

[3] = compound: CCC1=CN=CN=C1N2CCN(CC2)CC3=NC4=C(N3)C=C(C=C4)C(F)(F)F + CCNC(=O)c1noc(-c2cc(C(C)C)c(O)cc2O)c1-c1ccc(CN2CCOCC2)cc1 [Luminespib] (partner 0.01 µM)
Procedure, shortened: as §1

[4] = compound: CCn1c(-c2nonc2N)nc2cnc(Oc3cccc(NC(=O)c4ccc(OCCN5CCOCC5)cc4)c3)cc21 + COc1cc2c(Oc3ccc(NC(=O)C4(C(=O)Nc5ccc(F)cc5)CC4)cc3F)ccnc2cc1OCCCN1CCOCC1 [Foretinib] (partner 0.25 µM)
Procedure, shortened: as §1

Row | Cell Line | relative viability ([1]; first compound 0.04 µM) | relative viability ([1]; first compound 0.1265 µM) | relative viability ([1]; first compound 0.4 µM) | relative viability ([1]; first compound 1.265 µM) | relative viability ([1]; first compound 4 µM) | relative viability ([2]; first compound 0.25 µM) | relative viability ([2]; first compound 2.5 µM) | relative viability ([2]; first compound 7.906 µM) | relative viability ([2]; first compound 25 µM) | relative viability ([3]; first compound 0.04 µM) | relative viability ([3]; first compound 0.1265 µM) | relative viability ([3]; first compound 0.4 µM) | relative viability ([3]; first compound 1.265 µM) | relative viability ([3]; first compound 4 µM) | relative viability ([4]; first compound 0.04 µM) | relative viability ([4]; first compound 0.1265 µM) | relative viability ([4]; first compound 0.4 µM) | relative viability ([4]; first compound 1.265 µM) | relative viability ([4]; first compound 4 µM) | relative viability ([2]; first compound 0.7906 µM)
1 | EPLC-272H | 0.308 | 0.33 | 0.276 | 0.318 | 0.281 | 0.339 | 0.241 | 0.213 | 0.224 | 0.24 | 0.344 | 0.21 | 0.25 | 0.3 | 0.829 | 0.766 | 0.753 | 0.74 | 0.716 | –
2 | ChaGo-K-1 | 0.253 | 0.261 | 0.275 | 0.258 | 0.262 | 0.582 | 0.55 | 0.492 | 0.432 | 0.566 | 0.591 | 0.62 | 0.548 | 0.432 | 0.97 | 0.942 | 0.908 | 0.769 | 0.856 | 0.396
3 | NCI-H1651 | 0.616 | 0.627 | 0.684 | 0.59 | 0.728 | 0.782 | 0.877 | 0.549 | 0.662 | 0.977 | 0.84 | 0.739 | 0.923 | 0.767 | 1 | 0.963 | 0.959 | 0.662 | 0.455 | 0.701
4 | NCI-H2087 | 0.634 | 0.732 | 0.72 | 0.632 | 0.55 | 0.633 | 0.374 | 0.253 | 0.358 | 0.164 | 0.227 | 0.162 | 0.142 | 0.142 | 1.1 | 0.911 | 1.01 | 0.876 | 0.695 | 0.436
5 | RERF-LC-KJ | 0.393 | 0.455 | 0.459 | 0.441 | 0.476 | 0.691 | 0.596 | 0.651 | 0.425 | 1.24 | 1.23 | 1.21 | 1.12 | 1.05 | 1.02 | 0.829 | 0.74 | 0.532 | 0.532 | 0.59
6 | LOU-NH91 | 0.377 | 0.318 | 0.378 | 0.348 | 0.379 | 0.737 | 0.751 | 0.731 | 0.832 | 0.341 | 0.403 | 0.32 | 0.323 | 0.313 | 0.92 | 0.83 | 0.697 | 0.47 | 0.525 | 0.769
7 | PC-3 [JPC-3] | – | 0.983 | 1.07 | 0.959 | 1.09 | 0.797 | 0.774 | 0.669 | 0.753 | 0.681 | 0.733 | 0.668 | 0.71 | 0.618 | 1.06 | 1.08 | 1.11 | 1.01 | 0.942 | 0.739
8 | NCI-H2126 | 0.75 | 0.695 | 0.725 | 0.657 | 0.709 | 0.76 | 0.585 | 0.773 | 0.579 | 0.847 | 0.89 | 0.931 | 0.773 | 0.922 | 1.22 | 1.08 | – | – | 1.29 | 0.655
